Assay results reported in patent publication US7605005B2, “Method of screening for agents that modulate Tysnd1 level or activity in a cell” (Riken, priority 2005, dated 2009).

Legend:
[1] = system: fatty acid oxidation; details: reference 80; cited from earlier work
[2] = system: Tysnd1; experiment: Protease inhibition assay: processing of Acaa1 and Acox1 by recombinant Tysnd1; format: biochemical, mouse; details: preincubated 30 min at 25° C., then 12 h at 37° C., substrates Acaa1 and Acox1
[3] = target: T1, IDE (Homo sapiens, UniProt P14735); details: cited from earlier work
T1 sequence (P14735 1-1019): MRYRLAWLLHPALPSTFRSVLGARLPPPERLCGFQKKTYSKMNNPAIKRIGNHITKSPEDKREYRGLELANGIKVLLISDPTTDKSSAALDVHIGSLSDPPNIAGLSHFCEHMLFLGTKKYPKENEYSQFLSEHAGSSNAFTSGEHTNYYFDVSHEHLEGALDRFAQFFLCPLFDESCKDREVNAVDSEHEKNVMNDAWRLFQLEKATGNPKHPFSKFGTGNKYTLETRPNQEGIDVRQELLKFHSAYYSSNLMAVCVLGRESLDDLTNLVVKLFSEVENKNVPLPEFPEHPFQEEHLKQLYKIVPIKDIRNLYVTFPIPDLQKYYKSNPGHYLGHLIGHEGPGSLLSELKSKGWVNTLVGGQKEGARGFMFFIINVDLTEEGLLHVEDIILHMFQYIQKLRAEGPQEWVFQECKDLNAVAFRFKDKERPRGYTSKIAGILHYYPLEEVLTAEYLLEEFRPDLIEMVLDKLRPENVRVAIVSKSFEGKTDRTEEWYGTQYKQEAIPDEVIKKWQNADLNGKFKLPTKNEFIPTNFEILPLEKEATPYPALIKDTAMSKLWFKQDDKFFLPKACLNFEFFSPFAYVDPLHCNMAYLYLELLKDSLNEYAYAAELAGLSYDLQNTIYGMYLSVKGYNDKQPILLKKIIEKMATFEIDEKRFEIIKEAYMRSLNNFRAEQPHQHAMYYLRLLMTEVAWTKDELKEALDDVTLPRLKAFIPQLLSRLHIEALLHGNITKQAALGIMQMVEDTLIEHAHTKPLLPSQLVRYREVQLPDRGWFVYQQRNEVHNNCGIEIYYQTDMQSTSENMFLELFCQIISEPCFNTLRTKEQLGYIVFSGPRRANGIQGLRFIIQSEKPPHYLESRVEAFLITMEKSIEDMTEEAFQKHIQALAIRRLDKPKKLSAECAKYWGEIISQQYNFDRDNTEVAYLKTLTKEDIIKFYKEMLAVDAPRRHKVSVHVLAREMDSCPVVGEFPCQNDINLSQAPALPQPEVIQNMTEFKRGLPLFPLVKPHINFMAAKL

Row | Compound | Fatty acid oxidation [1] | Tysnd1 processing activity in the presence of protease inhibitor ([2]; inhibitor 1 mM) | Inhibition of peroxisomal protease IDE [3] | further results
1 | COc1ccc(CN2CCNCC2)c(OC)c1OC [trimetazidine] | inhibit |  |  | 
2 | c1cnc2c(c1)ccc1cccnc12 [1,10-phenanthroline] |  | Partial inhibition |  | 
3 | COc1ccccc1OCC(O)CN1CCN(CC(=O)Nc2c(C)cccc2C)CC1 (stereo not drawn) [ranolazine] | inhibit |  |  | 
4 | CCN1C(=O)C=CC1=O [NEM, N-ethylmaleimide] |  | completely abolished | inhibited | 
5 | CC(C)C[C@H](NC(=O)[C@H]1O[C@@H]1C(=O)O)C(=O)NCCCCN=C(N)N (relative stereo) [E64, trans-epoxysuccinyl-1-leucylamido-(4-guanidino) butane] |  |  | not | Tysnd1 processing activity in the presence of protease inhibitor ([2]; inhibitor 20 μM): resistant
6 | CC(=O)N[C@@H](CC(C)C)C(=O)N[C@@H](CC(C)C)C(=O)N[C@H](C=O)CCCNC(=N)N [leupeptin] |  |  | not | Tysnd1 processing activity in the presence of protease inhibitor ([2]; inhibitor 10 μM): resistant
